# Measurements reported in patent US10105357B2, “Indication of antibiotic drugs for preparation of cancer inhibition pharmaceutical composition” (LAUNX BIOMEDICAL CO., LTD., priority 2014, dated 2018).
# Where a name gives a salt, the structure may show the parent alone. Read-outs that look alike come from different tables or passages of the source.
# What was measured:
# Format in all cases: cell-based, human
# [1] = test system: A549 (Lung Adenocarcinoma); test: Cell viability analysis, lung cancer A549; details: for viability at 10 µM: Homo sapiens, A549, 72 h, read-out: cell viability (survival rate), A549, drug 10 μM, 72 hours, WST-1, OD450 nm
# [2] = test system: HepG2 (Hepatocellular Carcinoma); test: Cell viability analysis, hepatic cancer HepG2; details: for viability at 10 µM: Homo sapiens, HepG2, 72 h, read-out: cell viability (survival rate), HepG2, drug 10 μM, 72 hours, WST-1, OD450 nm
# [3] = test system: HI650 (Lung Adenocarcinoma); test: Cell viability analysis, lung cancer HI650; details: for viability at 10 µM: Homo sapiens, NCI-H1650, 72 h, read-out: cell viability (survival rate), H1650, drug 10 μM, 72 hours, WST-1, OD450 nm; for cell viability (survival rate), H1650: drug 10 μM, 72 hours, WST-1, OD450 nm
# [4] = test system: TSGH-8301 (Urinary Bladder Carcinoma); test: Cell viability analysis, bladder cancer TSGH-8301; details: for viability at 10 µM: Homo sapiens, 72 h, read-out: cell viability (survival rate), TSGH, drug 10 μM, 72 hours, WST-1, OD450 nm
# [5] = test system: cancer cell lines; test: Cell viability analysis (WST-1) on cancer cell lines; details: drug 10 μM, 72 hours; for inhibition effect on different cancer cell lines: WST-1, Table 3; for Inhibitory effect on cancer cell line: WST-1, OD450 nm, Table 2: drugs which do not have significant inhibitory effect
# [6] = test system: A375 (Amelanotic Melanoma); test: Cell viability analysis, skin cancer A375; details: for viability at 10 µM: Homo sapiens, A-375, 72 h, read-out: cell viability (survival rate), A375, drug 10 μM, 72 hours, WST-1, OD450 nm; for cell viability (survival rate), A375: drug 10 μM, 72 hours, WST-1, OD450 nm
# [7] = test system: MCF7 (Mammary Gland, Adenocarcinoma); test: Cell viability analysis, breast cancer MCF7; details: for viability at 10 µM: Homo sapiens, MCF7, 72 h, read-out: cell viability (survival rate), MCF7, drug 10 μM, 72 hours, WST-1, OD450 nm
# [8] = test system: HeLa (Cervix Adenocarcinoma); test: Cell viability analysis, cervical cancer HeLa; details: for viability at 10 µM: Homo sapiens, HeLa, 72 h, read-out: cell viability (survival rate), HeLa, drug 10 μM, 72 hours, WST-1, OD450 nm; for cell viability (survival rate), HeLa: drug 10 μM, 72 hours, WST-1, OD450 nm
# [9] = test system: PC3 (p53−) (Prostate Adenocarcinoma); test: Cell viability analysis, prostate cancer PC3; details: 72 h
# [10] = test system: LoVo (Colorectal Adenocarcinoma); test: Cell viability analysis, colon cancer LoVo; details: for viability at 10 µM: Homo sapiens, LoVo
# [11] = test system: AGS (Gastric Adenocarcinoma); test: Cell viability analysis, gastric cancer AGS; details: for viability at 10 µM: Homo sapiens, 72 h, read-out: cell viability (survival rate), AGS, drug 10 μM, 72 hours, WST-1, OD450 nm; for cell viability (survival rate), AGS: drug 10 μM, 72 hours, WST-1, OD450 nm
# [12] = test system: MKN-45 (Gastric Adenocarcinoma); test: Cell viability analysis, gastric cancer MKN-45; details: for viability at 10 µM: Homo sapiens, MKN-45, 72 h, read-out: cell viability (survival rate), MKN-45, drug 10 μM, 72 hours, WST-1, OD450 nm
# [13] = test system: HL-60 (Acute Promyelocytic Leukemia); test: Cell viability analysis, leukemia HL-60; details: for viability at 10 µM: Homo sapiens, HL-60, 72 h, read-out: cell viability (survival rate), HL-60, drug 10 μM, 72 hours, WST-1, OD450 nm; for cell viability (survival rate), HL-60: drug 10 μM, 72 hours, WST-1, OD450 nm
# [14] = 72 h, read-out: cell viability (survival rate), LoVo, drug 10 μM, 72 hours, WST-1, OD450 nm
# [15] = drug 10 μM, 72 hours, WST-1, OD450 nm
compound,measurement,setting,value
"Cc1cccn2c(=O)c(-c3nnn[nH]3)cnc12 [Pemirolast (BMY 26517) potassium, Pemirolast potassium]",viability at 10 µM,[1],82.9%
same,viability at 10 µM,[2],82.1%
same,viability at 10 µM,[3],81.8%
same,viability at 10 µM,[4],93.7%
same,inhibition effect on different cancer cell lines,[5],significant inhibition effect
same,viability at 10 µM,[6],70.8%
same,viability at 10 µM,[7],83.2%
same,viability at 10 µM,[8],88.4%
same,viability at 10 µM,"[9]; Homo sapiens, read-out: cell viability (survival rate), PC3, drug 10 μM, 72 hours, WST-1, OD450 nm",53.8%
same,viability at 10 µM,[10]; [14],107%
same,viability at 10 µM,[11],69.4%
Cl.NC1CCN(c2c(F)cc3c(=O)c(C(=O)O)cn(C4CC4)c3c2Cl)C1 (stereo not shown) [Clinafoxacin HCl],inhibition effect on different cancer cell lines,[5],significant inhibition effect
Teicoplanin,inhibition effect on different cancer cell lines,[5],significant inhibition effect
CCn1cc(C(=O)O)c(=O)c2cc(F)c(N3CCN(C)CC3)cc21 [Pefloxacin mesylate],inhibition effect on different cancer cell lines,[5],significant inhibition effect
CCN[C@@H]1C[C@H](N)[C@@H](O[C@H]2OC(CN)=CC[C@H]2N)[C@H](O)[C@H]1O[C@H]1OC[C@](C)(O)[C@H](NC)[C@H]1O.CCN[C@@H]1C[C@H](N)[C@@H](O[C@H]2OC(CN)=CC[C@H]2N)[C@H](O)[C@H]1O[C@H]1OC[C@](C)(O)[C@H](NC)[C@H]1O.O=S(=O)(O)O.O=S(=O)(O)O.O=S(=O)(O)O.O=S(=O)(O)O.O=S(=O)(O)O [Netilmicin Sulfate],Inhibitory effect on cancer cell line,[5],0
same,inhibition effect on different cancer cell lines,[5],significant inhibition effect
Dabigatran [BIBR-1048 (Dabigatran)],inhibition effect on different cancer cell lines,[5],significant inhibition effect
CC1(C)S[C@@H]2[C@H](NC(=O)[C@H](N)c3ccccc3)C(=O)N2[C@H]1C(=O)O [Ampicillin sodium],"cell viability (survival rate), A549","[1]; human, 72 h, 10 µM",102.6
same,viability at 10 µM,[2],76.1%
same,viability at 10 µM,[3],53.5%
same,viability at 10 µM,[4],72%
same,"cell viability (survival rate), MKN-45","[12]; human, 72 h, 10 µM",77.9
same,inhibition effect on different cancer cell lines,[5],significant inhibition effect
same,viability at 10 µM,[6],68.9%
same,"cell viability (survival rate), MCF7","[7]; human, 72 h, 10 µM",99.1
same,viability at 10 µM,[8],75.2%
same,"cell viability (survival rate), PC3","[9]; human, 10 µM",98.1
same,viability at 10 µM,[10]; [14],88.9%
same,viability at 10 µM,[11],105%
Meclocycline Sulfosalicylate,inhibition effect on different cancer cell lines,[5],significant inhibition effect
N[C@@H]1CONC1=O [D-Cycloserine],inhibition effect on different cancer cell lines,[5],significant inhibition effect
CCN1CCN(C(=O)N[C@@H](C(=O)N[C@@H]2C(=O)N3[C@@H]2SC(C)(C)[C@@H]3C(=O)O)c2ccccc2)C(=O)C1=O [Piperacillin Sodium],viability at 10 µM,[1],37.1%
same,viability at 10 µM,[2],96.3%
same,viability at 10 µM,[3],71.6%
same,viability at 10 µM,[4],87.1%
same,viability at 10 µM,[12],87.1%
same,inhibition effect on different cancer cell lines,[5],significant inhibition effect
same,viability at 10 µM,[6],67.9%
same,viability at 10 µM,[7],52.3%
same,viability at 10 µM,[13],108%
same,viability at 10 µM,[10]; [14],97.4%
same,viability at 10 µM,[11],98.3%
NNC(=O)c1ccncc1.Nc1ccc(C(=O)O)c(O)c1 [Pasiniazid],inhibition effect on different cancer cell lines,[5],significant inhibition effect
Spiramycin,inhibition effect on different cancer cell lines,[5],significant inhibition effect
NCC[C@H](O)C(=O)N[C@@H]1C[C@H](N)[C@@H](O[C@H]2O[C@H](CN)[C@@H](O)[C@H](O)[C@H]2O)[C@H](O)[C@H]1O[C@H]1O[C@H](CO)[C@@H](O)[C@H](N)[C@H]1O.O=S(=O)(O)O.O=S(=O)(O)O [Amikacin sulfate],inhibition effect on different cancer cell lines,[5],significant inhibition effect
C[C@@H](O)[C@H]1C(=O)N2C(C(=O)O)=C(S[C@@H]3CN[C@H](CNS(N)(=O)=O)C3)[C@H](C)[C@H]12 [Doripenem Hydrate],viability at 10 µM,[1],70.9%
same,viability at 10 µM,[2],106%
same,viability at 10 µM,[3],78.5%
same,viability at 10 µM,[4],79.9%
same,viability at 10 µM,[12],111%
same,inhibition effect on different cancer cell lines,[5],significant inhibition effect
same,viability at 10 µM,[7],99.8%
same,viability at 10 µM,[8],122%
same,viability at 10 µM,[13],91.2%
same,viability at 10 µM,[10]; [14],95.2%
same,viability at 10 µM,[11],66.5%
CN(C)CCC(c1ccc(Br)cc1)c1ccccn1 (stereo not shown) [Brompheniramine],viability at 10 µM,[1],109%
same,viability at 10 µM,[2],95.7%
same,viability at 10 µM,[3],83%
same,viability at 10 µM,[4],97.9%
same,viability at 10 µM,[12],85.8%
same,inhibition effect on different cancer cell lines,[5],significant inhibition effect
same,viability at 10 µM,[7],75.8%
same,viability at 10 µM,[8],111%
same,viability at 10 µM,[13],122%
same,viability at 10 µM,[10]; [14],98.9%
same,viability at 10 µM,[11],121%
"CN(C/C=C/C#CC(C)(C)C)Cc1cccc2ccccc12 [Terbinafine hydrochloride (Lamisil), Terbinafine hydrochloride]",inhibition effect on different cancer cell lines,[5],significant inhibition effect
Salbutamol sulfate [Salbutamol sulfate (Albuterol)],"cell viability (survival rate), A549",[1]; [15],94.6
same,"cell viability (survival rate), H1650",[3],84.3
same,"cell viability (survival rate), MKN-45",[12]; [15],71.2
same,Inhibitory effect on cancer cell line,[5],0
same,inhibition effect on different cancer cell lines,[5],significant inhibition effect
same,"cell viability (survival rate), A375",[6],98.0
same,"cell viability (survival rate), MCF7",[7]; [15],139.6
same,"cell viability (survival rate), HeLa",[8],99.9
same,"cell viability (survival rate), HL-60",[13],104.1
same,"cell viability (survival rate), LoVo",[10]; [15],97.1
same,"cell viability (survival rate), AGS",[11],91.8
CC1(C)[C@H](C(=O)O)N2C(=O)C[C@H]2S1(=O)=O [Sulbactam],inhibition effect on different cancer cell lines,[5],significant inhibition effect
same,viability at 10 µM,"[10]; drug 10 μM, 72 hours, WST-1, OD450 nm, read-out: cell viability (survival rate), LoVo",81.7%
Bismuth Subcitrate Potassium,Inhibitory effect on cancer cell line,[5],0
same,inhibition effect on different cancer cell lines,[5],significant inhibition effect
"O=C(O)CCCC[C@@H]1SC[C@@H]2NC(=O)N[C@@H]21 [Biotin (Vitamin B7), Biotin]",viability at 10 µM,[1],86.4%
same,viability at 10 µM,[3],94.2%
same,viability at 10 µM,[4],93.5%
same,viability at 10 µM,[12],85.1%
same,inhibition effect on different cancer cell lines,[5],significant inhibition effect
same,viability at 10 µM,[6],71.3%
same,viability at 10 µM,[7],89.1%
same,viability at 10 µM,[8],90.7%
same,viability at 10 µM,[13],85.2%
same,viability at 10 µM,[10]; [14],99.2%
same,viability at 10 µM,[11],104%
"CC(C)CN(C[C@@H](O)[C@H](Cc1ccccc1)NC(=O)O[C@H]1CO[C@H]2OCC[C@H]21)S(=O)(=O)c1ccc(N)cc1.CCO [Darunavir Ethanolate (Prezista), Darunavir Ethanolate]",inhibition effect on different cancer cell lines,[5],significant inhibition effect
"Cc1nccn1CC1CCc2c(c3ccccc3n2C)C1=O (stereo not shown) [Ondansetron hydrochloride (Zofran), Ondansetron hydrochloride]",inhibition effect on different cancer cell lines,[5],significant inhibition effect
CO/N=C(\C(=O)N[C@@H]1C(=O)N2C(C(=O)O)=C(Cn3ccc(=N)n3CCO)CS[C@H]12)c1csc(N)n1.O=S(=O)(O)O [Cefoselis sulfate],Inhibitory effect on cancer cell line,[5],0
same,inhibition effect on different cancer cell lines,[5],significant inhibition effect
Colistin Sulfate,"cell viability (survival rate), A549",[1]; [15],97.6
same,"cell viability (survival rate), HepG2",[2]; [15],77.7
same,"cell viability (survival rate), H1650",[3],62.2
same,"cell viability (survival rate), TSGH",[4]; [15],36.2
same,inhibition effect on different cancer cell lines,[5],significant inhibition effect
same,"cell viability (survival rate), A375",[6],36.1
same,"cell viability (survival rate), HeLa",[8],84.3
same,"cell viability (survival rate), HL-60",[13],108.9
same,"cell viability (survival rate), LoVo",[10]; [15],92.0
same,"cell viability (survival rate), AGS",[11],26.1
"NC(=O)c1cnccn1 [Pyrazinamide (Pyrazinoic acid amide), Pyrazinamide]",inhibition effect on different cancer cell lines,[5],significant inhibition effect
